The values below come from BindingDB's records for doi:10.1021/acs.jmedchem.0c01420 (Ochanomizu University, 2021).

A short description of the test: Agonist activity at VDR in human HL-60 cells assessed as induction of cell differentiation of promyelocytes to monocytes after 4 days by NBT reduction assay.

Regarding `C[C@H](CCC(=O)O)[C@H]1CC[C@H]2[C@@H]3CC[C@@H]4C[C@@H](CC(C)(C)O)CC[C@]4(C)[C@H]3CC[C@]12C`, the EC50 amounted to 36 nM.

As to `C[C@H](CCC(=O)O)[C@H]1CC[C@H]2[C@@H]3CC[C@@H]4C[C@H](CC(C)(C)O)CC[C@]4(C)[C@H]3CC[C@]12C`, the EC50 was 0.53 nM.

In general, EC50 refers to the concentration at which the effect is half-maximal.
